Legend:
[1] = xn = mol fraction of the nth substance listed
[2] = refractive index (Na D-line) (dimensionless); xn = mol fraction of the nth substance listed; conditions: 100.5 kPa, Liquid, Standard Abbe refractometry

CCCCCCCC(=O)OCC [ethyl octanoate] + CCO
Conditions | refractive index, 288.15 K | refractive index, 298.15 K | refractive index, 308.15 K | refractive index, 318.15 K | surface tension liquid-gas, 288.15 K [mN/m] | surface tension liquid-gas, 298.15 K [mN/m] | surface tension liquid-gas, 308.15 K [mN/m] | surface tension liquid-gas, 318.15 K [mN/m]
[1], x1 = 0.05 | – | – | – | – | 23.6 | 22.9 | 22 | 21.1
[1], x1 = 0.1 | – | – | – | – | 24 | 23.3 | 22.5 | 21.6
[1], x1 = 0.15 | – | – | – | – | 24.4 | 23.7 | 22.8 | 21.9
[1], x1 = 0.2 | – | – | – | – | 24.8 | 24 | 23.2 | 22.3
[1], x1 = 0.25 | – | – | – | – | 25.1 | 24.3 | 23.4 | 22.6
[1], x1 = 0.3 | – | – | – | – | 25.3 | 24.5 | 23.7 | 22.8
[1], x1 = 0.35 | – | – | – | – | 25.5 | 24.8 | 23.9 | 23
[1], x1 = 0.4 | – | – | – | – | 25.7 | 24.9 | 24.1 | 23.2
[1], x1 = 0.45 | – | – | – | – | 25.9 | 25.1 | 24.2 | 23.4
[1], x1 = 0.5 | – | – | – | – | 26.1 | 25.3 | 24.4 | 23.5
[1], x1 = 0.55 | – | – | – | – | 26.2 | 25.4 | 24.5 | 23.7
[1], x1 = 0.6 | – | – | – | – | 26.3 | 25.6 | 24.7 | 23.8
[1], x1 = 0.65 | – | – | – | – | 26.5 | 25.7 | 24.8 | 24
[1], x1 = 0.7 | – | – | – | – | 26.6 | 25.8 | 24.9 | 24.1
[1], x1 = 0.75 | – | – | – | – | 26.7 | 25.9 | 25 | 24.2
[1], x1 = 0.8 | – | – | – | – | 26.8 | 26 | 25.1 | 24.3
[1], x1 = 0.85 | – | – | – | – | 26.9 | 26.1 | 25.2 | 24.4
[1], x1 = 0.9 | – | – | – | – | 27 | 26.2 | 25.3 | 24.5
[1], x1 = 0.95 | – | – | – | – | 27.1 | 26.3 | 25.4 | 24.6
[1], x1 = 1 | – | – | – | – | 27.2 | 26.4 | 25.5 | 24.7
[2], x1 = 0.05 | 1.37185 | 1.36779 | 1.36356 | 1.35953 | – | – | – | –
[2], x1 = 0.1 | 1.37876 | 1.37462 | 1.37036 | 1.36625 | – | – | – | –
[2], x1 = 0.15 | 1.38444 | 1.38028 | 1.37601 | 1.37184 | – | – | – | –
[2], x1 = 0.2 | 1.38922 | 1.38502 | 1.38074 | 1.37654 | – | – | – | –
[2], x1 = 0.25 | 1.39327 | 1.38905 | 1.38477 | 1.38054 | – | – | – | –
[2], x1 = 0.3 | 1.39676 | 1.39252 | 1.38823 | 1.38398 | – | – | – | –
[2], x1 = 0.35 | 1.39979 | 1.39553 | 1.39125 | 1.38698 | – | – | – | –
[2], x1 = 0.4 | 1.40245 | 1.39818 | 1.39389 | 1.38961 | – | – | – | –
[2], x1 = 0.45 | 1.40481 | 1.40053 | 1.39624 | 1.39195 | – | – | – | –
[2], x1 = 0.5 | 1.40692 | 1.40263 | 1.39835 | 1.39403 | – | – | – | –
[2], x1 = 0.55 | 1.40882 | 1.40451 | 1.40023 | 1.39591 | – | – | – | –
[2], x1 = 0.6 | 1.41053 | 1.40621 | 1.40193 | 1.3976 | – | – | – | –
[2], x1 = 0.65 | 1.41208 | 1.40776 | 1.40348 | 1.39914 | – | – | – | –
[2], x1 = 0.7 | 1.4135 | 1.40917 | 1.40489 | 1.40054 | – | – | – | –
[2], x1 = 0.75 | 1.4148 | 1.41047 | 1.40619 | 1.40183 | – | – | – | –
[2], x1 = 0.8 | 1.41599 | 1.41166 | 1.40739 | 1.40302 | – | – | – | –
[2], x1 = 0.85 | 1.41709 | 1.41276 | 1.4085 | 1.40412 | – | – | – | –
[2], x1 = 0.9 | 1.4181 | 1.41378 | 1.40952 | 1.40515 | – | – | – | –
[2], x1 = 0.95 | 1.41904 | 1.41472 | 1.41047 | 1.40611 | – | – | – | –
[2], x1 = 1 | 1.41991 | 1.4156 | 1.41137 | 1.40702 | – | – | – | –

CCOC(=O)Cc1ccccc1 [ethyl phenylacetate] + CCO
Conditions | refractive index, 288.15 K | refractive index, 298.15 K | refractive index, 308.15 K | refractive index, 318.15 K | surface tension liquid-gas, 288.15 K [mN/m] | surface tension liquid-gas, 298.15 K [mN/m] | surface tension liquid-gas, 308.15 K [mN/m] | surface tension liquid-gas, 318.15 K [mN/m]
[1], x1 = 0.05 | – | – | – | – | 23.9 | 23.1 | 22.2 | 21.2
[1], x1 = 0.1 | – | – | – | – | 24.6 | 23.7 | 22.8 | 21.8
[1], x1 = 0.15 | – | – | – | – | 25.2 | 24.3 | 23.4 | 22.4
[1], x1 = 0.2 | – | – | – | – | 25.9 | 24.9 | 23.9 | 22.9
[1], x1 = 0.25 | – | – | – | – | 26.5 | 25.5 | 24.5 | 23.5
[1], x1 = 0.3 | – | – | – | – | 27.2 | 26.1 | 25.1 | 24.1
[1], x1 = 0.35 | – | – | – | – | 27.8 | 26.7 | 25.7 | 24.7
[1], x1 = 0.4 | – | – | – | – | 28.4 | 27.3 | 26.2 | 25.4
[1], x1 = 0.45 | – | – | – | – | 29.1 | 27.9 | 26.8 | 26
[1], x1 = 0.5 | – | – | – | – | 29.7 | 28.5 | 27.4 | 26.6
[1], x1 = 0.55 | – | – | – | – | 30.3 | 29.1 | 28 | 27.2
[1], x1 = 0.6 | – | – | – | – | 31 | 29.7 | 28.6 | 27.8
[1], x1 = 0.65 | – | – | – | – | 31.6 | 30.3 | 29.2 | 28.4
[1], x1 = 0.7 | – | – | – | – | 32.2 | 30.9 | 29.8 | 29
[1], x1 = 0.75 | – | – | – | – | 32.8 | 31.6 | 30.4 | 29.5
[1], x1 = 0.8 | – | – | – | – | 33.5 | 32.1 | 31 | 30.1
[1], x1 = 0.85 | – | – | – | – | 34.1 | 32.8 | 31.6 | 30.7
[1], x1 = 0.9 | – | – | – | – | 34.7 | 33.4 | 32.2 | 31.4
[1], x1 = 0.95 | – | – | – | – | 35.3 | 33.9 | 32.8 | 32
[1], x1 = 1 | – | – | – | – | 35.9 | 34.6 | 33.5 | 32.8
[2], x1 = 0.05 | 1.38109 | 1.37693 | 1.37265 | 1.36852 | – | – | – | –
[2], x1 = 0.1 | 1.39604 | 1.3918 | 1.38745 | 1.38323 | – | – | – | –
[2], x1 = 0.15 | 1.4087 | 1.40441 | 1.40003 | 1.39573 | – | – | – | –
[2], x1 = 0.2 | 1.41969 | 1.41536 | 1.41093 | 1.40653 | – | – | – | –
[2], x1 = 0.25 | 1.42932 | 1.42491 | 1.42047 | 1.41597 | – | – | – | –
[2], x1 = 0.3 | 1.4379 | 1.43347 | 1.42899 | 1.42447 | – | – | – | –
[2], x1 = 0.35 | 1.44556 | 1.44111 | 1.43661 | 1.43203 | – | – | – | –
[2], x1 = 0.4 | 1.45242 | 1.44792 | 1.44342 | 1.43878 | – | – | – | –
[2], x1 = 0.45 | 1.45856 | 1.45402 | 1.44951 | 1.44484 | – | – | – | –
[2], x1 = 0.5 | 1.46406 | 1.45953 | 1.455 | 1.4503 | – | – | – | –
[2], x1 = 0.55 | 1.46909 | 1.46454 | 1.45999 | 1.45524 | – | – | – | –
[2], x1 = 0.6 | 1.47365 | 1.46908 | 1.46451 | 1.45975 | – | – | – | –
[2], x1 = 0.65 | 1.47785 | 1.47324 | 1.46869 | 1.46391 | – | – | – | –
[2], x1 = 0.7 | 1.48174 | 1.47713 | 1.47255 | 1.46775 | – | – | – | –
[2], x1 = 0.75 | 1.48536 | 1.48072 | 1.47613 | 1.47132 | – | – | – | –
[2], x1 = 0.8 | 1.48865 | 1.48403 | 1.47943 | 1.47458 | – | – | – | –
[2], x1 = 0.85 | 1.4917 | 1.48707 | 1.48248 | 1.47763 | – | – | – | –
[2], x1 = 0.9 | 1.49461 | 1.48996 | 1.48539 | 1.48053 | – | – | – | –
[2], x1 = 0.95 | 1.4973 | 1.49266 | 1.4881 | 1.48323 | – | – | – | –
[2], x1 = 1 | 1.49971 | 1.49513 | 1.49063 | 1.48583 | – | – | – | –
